In US7217730B2, “Method for the use of pyranoindole derivatives to treat infection with Hepatitis C virus” (Wyeth, priority 2002, dated 2007):

Biological target: T1, NS5B from the BK strain (genotype 1b) (Hepatitis C virus genotype 1b, UniProt P26663)
T1 construct: NS5B from the BK strain (genotype 1b) is expressed in E. coli as a protein in which the 21 C-terminal amino acids are replaced; made in house; host or cells: E. coli
Test: Hepatitis C polymerase inhibition, NS5B BK strain, 33P-GTP filter assay
Type: biochemical
Conditions: Table 1A; for inhibition at 20 µM: 20 μM compound, read-out: HCV pol % inh at 20 μM; for IC50: NS5B BK strain, read-out: HCV pol BK IC50
Outline: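 Radiolabelled RNA synthesis was measured by filter capture and scintillation counting after EDTA stop. His-tagged, C-terminally truncated (Δ21) genotype 1b BK NS5B from E. coli, pre-exposed to compound for 15 min, copied a self-primed RNA template (~3 nM) with α-[33P]-GTP for 2 h at room temperature.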

T1 sequence (P26663 2420-2989): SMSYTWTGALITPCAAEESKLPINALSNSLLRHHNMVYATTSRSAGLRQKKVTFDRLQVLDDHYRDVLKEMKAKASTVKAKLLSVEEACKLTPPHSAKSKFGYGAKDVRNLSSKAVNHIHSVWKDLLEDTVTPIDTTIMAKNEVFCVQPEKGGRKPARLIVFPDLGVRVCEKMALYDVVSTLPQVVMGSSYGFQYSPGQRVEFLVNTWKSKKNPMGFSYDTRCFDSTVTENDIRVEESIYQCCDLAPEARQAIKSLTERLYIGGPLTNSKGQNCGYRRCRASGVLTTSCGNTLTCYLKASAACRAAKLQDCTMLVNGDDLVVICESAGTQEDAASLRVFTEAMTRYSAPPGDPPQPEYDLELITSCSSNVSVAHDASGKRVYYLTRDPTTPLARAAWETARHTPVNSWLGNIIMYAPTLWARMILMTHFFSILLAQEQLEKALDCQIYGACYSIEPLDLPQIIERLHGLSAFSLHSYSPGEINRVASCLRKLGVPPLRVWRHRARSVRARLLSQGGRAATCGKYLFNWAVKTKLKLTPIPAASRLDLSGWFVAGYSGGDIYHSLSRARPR

Row | Structure (SMILES) | inhibition at 20 µM | IC50
1 | C/C=C/CCC1(CC(=O)O)OCCc2c1[nH]c1c(Cl)cc(C)c(C#N)c21 (stereo not shown) [Example 186, {8-chloro-5-cyano-6-methyl-1-[(3E)-pent-3-enyl]-1,3,4,9-tetrahydropyrano[3,4-b]indol-1-yl}acetic acid] | 2% | > 5000 nM
2 | Cc1cc(Cl)c2[nH]c3c(c2c1C#N)CCOC3(CC(=O)O)c1ccccc1 (stereo not shown) [Example 187, (8-chloro-5-cyano-6-methyl-1-phenyl-1,3,4,9-tetrahydropyrano[3,4-b]indol-1-yl)acetic acid] | 61% | > 5000 nM
3 | Cc1cc(Cl)c2[nH]c3c(c2c1C#N)CCOC3(CC(=O)O)c1ccc(C(=O)O)cc1 (stereo not shown) [Example 188, 4-[1-(carboxymethyl)-8-chloro-5-cyano-6-methyl-1,3,4,9-tetrahydropyrano[3,4-b]indol-1-yl]benzoic acid] | 76% | > 5000 nM
4 | CCC1(CC(=O)O)OCCc2c1[nH]c1c(F)cc(F)c(Br)c21 (stereo not shown) [Example 189, (5-bromo-1-ethyl-6,8-difluoro-1,3,4,9-tetrahydropyrano[3,4-b]indol-1-yl)acetic acid] | 74% | 4200 nM
5 | CCCC1(CC(=O)O)OCCc2c1[nH]c1c(F)cc(F)c(Br)c21 (stereo not shown) [Example 190, (5-bromo-6,8-difluoro-1-propyl-1,3,4,9-tetrahydropyrano[3,4-b]indol-1-yl)acetic acid] | 94% | 200 nM
6 | CCCCC1(CC(=O)O)OCCc2c1[nH]c1c(F)cc(F)c(Br)c21 (stereo not shown) [Example 191, (5-bromo-1-butyl-6,8-difluoro-1,3,4,9-tetrahydropyrano[3,4-b]indol-1-yl)acetic acid] | 93% | 400 nM
7 | O=C(O)CC1(c2ccoc2)OCCc2c1[nH]c1c(F)cc(F)c(Br)c21 (stereo not shown) [Example 192, [5-bromo-6,8-difluoro-1-(3-furyl)-1,3,4,9-tetrahydropyrano[3,4-b]indol-1-yl]acetic acid] | 74% | > 5000 nM
8 | CC(C)C1(CC(=O)O)OCCc2c1[nH]c1c(F)cc(F)c(Br)c21 (stereo not shown) [Example 193, (5-bromo-6,8-difluoro-1-isopropyl-1,3,4,9-tetrahydropyrano[3,4-b]indol-1-yl)acetic acid] | 69% | 4500 nM
9 | CCC1(CC(=O)O)OCCc2c1[nH]c1c(F)cc(F)c(C#N)c21 (stereo not shown) [Example 194, (5-cyano-1-ethyl-6,8-difluoro-1,3,4,9-tetrahydropyrano[3,4-b]indol-1-yl)acetic acid] | 50% | > 5000 nM
10 | CCCC1(CC(=O)O)OCCc2c1[nH]c1c(F)cc(F)c(C#N)c21 (stereo not shown) [Example 195, (5-cyano-6,8-difluoro-1-propyl-1,3,4,9-tetrahydropyrano[3,4-b]indol-1-yl)acetic acid] | 90% | 270 nM
11 | CCCCC1(CC(=O)O)OCCc2c1[nH]c1c(F)cc(F)c(C#N)c21 (stereo not shown) [Example 196, (1-butyl-5-cyano-6,8-difluoro-1,3,4,9-tetrahydropyrano[3,4-b]indol-1-yl)acetic acid] | 77% | 1200 nM
12 | N#Cc1c(F)cc(F)c2[nH]c3c(c12)CCOC3(CC(=O)O)c1ccoc1 (stereo not shown) [Example 197, [5-cyano-6,8-difluoro-1-(3-furyl)-1,3,4,9-tetrahydropyrano[3,4-b]indol-1-yl]acetic acid] | 55% | > 5000 nM
13 | CC(C)C1(CC(=O)O)OCCc2c1[nH]c1c(F)cc(F)c(C#N)c21 (stereo not shown) [Example 198, (5-cyano-6,8-difluoro-1-isopropyl-1,3,4,9-tetrahydropyrano[3,4-b]indol-1-yl)acetic acid] | 82% | > 5000 nM
14 | Cc1cc(F)c(Br)c2c3c([nH]c12)C(C)(CC(=O)O)OCC3 (stereo not shown) [Example 199, (5-bromo-6-fluoro-1,8-dimethyl-1,3,4,9-tetrahydropyrano[3,4-b]indol-1-yl)acetic acid] | 52% | > 5000 nM
15 | CCC1(CC(=O)O)OCCc2c1[nH]c1c(C)cc(F)c(Br)c21 (stereo not shown) [Example 200, (5-bromo-1-ethyl-6-fluoro-8-methyl-1,3,4,9-tetrahydropyrano[3,4-b]indol-1-yl)acetic acid] | 83% | 2100 nM
16 | CCCC1(CC(=O)O)OCCc2c1[nH]c1c(C)cc(F)c(Br)c21 (stereo not shown) [Example 201, (5-bromo-6-fluoro-8-methyl-1-propyl-1,3,4,9-tetrahydropyrano[3,4-b]indol-1-yl)acetic acid] | 82% | 150 nM
17 | Cc1cc(F)c(Br)c2c3c([nH]c12)C(CC(=O)O)(C(C)C)OCC3 (stereo not shown) [Example 202, (5-bromo-6-fluoro-1-isopropyl-8-methyl-1,3,4,9-tetrahydropyrano[3,4-b]indol-1-yl)acetic acid] | 82% | 2900 nM
18 | CCCCC1(CC(=O)O)OCCc2c1[nH]c1c(C)cc(F)c(Br)c21 (stereo not shown) [Example 203, (5-bromo-1-butyl-6-fluoro-8-methyl-1,3,4,9-tetrahydropyrano[3,4-b]indol-1-yl)acetic acid] | 94% | 190 nM

Row | Structure (SMILES) | inhibition at 20 µM | IC50
19 | Cc1cc(F)c(Br)c2c3c([nH]c12)C(CC(=O)O)(c1ccc(C(=O)O)cc1)OCC3 (stereo not shown) [Example 204, 4-[5-bromo-1-(carboxymethyl)-6-fluoro-8-methyl-1,3,4,9-tetrahydropyrano[3,4-b]indol-1-yl]benzoic acid] | 87% | 1200 nM
20 | Cc1cc(F)c(C#N)c2c3c([nH]c12)C(C)(CC(=O)O)OCC3 (stereo not shown) [Example 205, (5-cyano-6-fluoro-1,8-dimethyl-1,3,4,9-tetrahydropyrano[3,4-b]indol-1-yl)acetic acid] | 34% | > 20000 nM
21 | CCC1(CC(=O)O)OCCc2c1[nH]c1c(C)cc(F)c(C#N)c21 (stereo not shown) [Example 206, (5-cyano-1-ethyl-6-fluoro-8-methyl-1,3,4,9-tetrahydropyrano[3,4-b]indol-1-yl)acetic acid] | 84% | 1100 nM
22 | Cc1cc(F)c(C#N)c2c3c([nH]c12)C(CC(=O)O)(C(C)C)OCC3 (stereo not shown) [Example 207, (5-cyano-6-fluoro-1-isopropyl-8-methyl-1,3,4,9-tetrahydropyrano[3,4-b]indol-1-yl)acetic acid] | 76% | 580 nM
23 | CCCCC1(CC(=O)O)OCCc2c1[nH]c1c(C)cc(F)c(C#N)c21 (stereo not shown) [Example 208, (1-butyl-5-cyano-6-fluoro-8-methyl-1,3,4,9-tetrahydropyrano[3,4-b]indol-1-yl)acetic acid] | 88% | 230 nM
24 | Cc1cc(F)c(C#N)c2c3c([nH]c12)C(CC(=O)O)(c1ccc(C(=O)O)cc1)OCC3 (stereo not shown) [Example 209, 4-[1-(carboxymethyl)-5-cyano-6-fluoro-8-methyl-1,3,4,9-tetrahydropyrano[3,4-b]indol-1-yl]benzoic acid] | 63% | 17900 nM
25 | CCC1(CC(=O)O)OCCc2c1[nH]c1c(Br)ccc(Br)c21 (stereo not shown) [Example 210, (5,8-dibromo-1-ethyl-1,3,4,9-tetrahydropyrano[3,4-b]indol-1-yl)acetic acid] | 87% | 430 nM
26 | CCCC1(CC(=O)O)OCCc2c1[nH]c1c(Br)ccc(Br)c21 (stereo not shown) [Example 211, (5,8-dibromo-1-propyl-1,3,4,9-tetrahydropyrano[3,4-b]indol-1-yl)acetic acid] | 89% | 130 nM
27 | CC(C)C1(CC(=O)O)OCCc2c1[nH]c1c(Br)ccc(Br)c21 (stereo not shown) [Example 212, (5,8-dibromo-1-isopropyl-1,3,4,9-tetrahydropyrano[3,4-b]indol-1-yl)acetic acid] | 81% | 400 nM
28 | CCCCC1(CC(=O)O)OCCc2c1[nH]c1c(Br)ccc(Br)c21 (stereo not shown) [Example 213, (5,8-dibromo-1-butyl-1,3,4,9-tetrahydropyrano[3,4-b]indol-1-yl)acetic acid] | 87% | 280 nM
29 | CCCC1(CC(=O)O)OCCc2c1[nH]c1c(F)ccc(Cl)c21 (stereo not shown) [Example 214, (5-chloro-8-fluoro-1-propyl-1,3,4,9-tetrahydropyrano[3,4-b]indol-1-yl)acetic acid] | 82% | 740 nM
30 | CCCC1(CC(=O)O)OCCc2c1[nH]c1c(F)ccc(I)c21 (stereo not shown) [Example 215, (8-fluoro-5-iodo-1-propyl-1,3,4,9-tetrahydropyrano[3,4-b]indol-1-yl)acetic acid] | 86% | 320 nM
31 | CCCC1(CC(=O)O)OCCc2c1[nH]c1c(Cl)cc(C)c(Cl)c21 (stereo not shown) [Example 216, (5,8-dichloro-6-methyl-1-propyl-1,3,4,9-tetrahydropyrano[3,4-b]indol-1-yl)acetic acid] | 86% | 260 nM
32 | CCCC1(CC(=O)O)OCCc2c1[nH]c1c(Cl)cc(C)c(I)c21 (stereo not shown) [Example 217, (8-chloro-5-iodo-6-methyl-1-propyl-1,3,4,9-tetrahydropyrano[3,4-b]indol-1-yl)acetic acid] | 88% | 630 nM
33 | Cc1cc(F)c2[nH]c3c(c2c1C#N)CCOC3(C)CC(=O)O (stereo not shown) [Example 219, (5-cyano-8-fluoro-1,6-dimethyl-1,3,4,9-tetrahydropyrano[3,4-b]indol-1-yl)acetic acid] | 30% | > 5000 nM
34 | CCC1(CC(=O)O)OCCc2c1[nH]c1c(F)cc(C)c(C#N)c21 (stereo not shown) [Example 220, (5-cyano-1-ethyl-8-fluoro-6-methyl-1,3,4,9-tetrahydropyrano[3,4-b]indol-1-yl)acetic acid] | 43% | > 5000 nM
35 | Cc1cc(F)c2[nH]c3c(c2c1C#N)CCOC3(CC(=O)O)C(C)C (stereo not shown) [Example 222, (5-cyano-8-fluoro-1-isopropyl-6-methyl-1,3,4,9-tetrahydropyrano[3,4-b]indol-1-yl)aceti acid] | 45% | > 5000 nM
